Test results published in US12662461B2, “Tricyclic compound and pharmaceutical use thereof” (JD BIOSCIENCE INC., priority 2019, dated 2026).
Where a name gives a salt, the structure may show the parent alone.

Target: serotonin 2A (5-HT2A) receptor (Homo sapiens, UniProt P28223)
Experiment: Measurement of inhibitory activity against serotonin 2A receptor (in vitro)
Format: biochemical
Conditions: inhibitory activity against serotonin 2A (5-HT2A) receptor
Source text: Experimental Example: Measurement of Inhibitory Activity Against Serotonin 2A Receptor

serotonin 2A (5-HT2A) receptor, sequence (P28223 whole entry, species assumed): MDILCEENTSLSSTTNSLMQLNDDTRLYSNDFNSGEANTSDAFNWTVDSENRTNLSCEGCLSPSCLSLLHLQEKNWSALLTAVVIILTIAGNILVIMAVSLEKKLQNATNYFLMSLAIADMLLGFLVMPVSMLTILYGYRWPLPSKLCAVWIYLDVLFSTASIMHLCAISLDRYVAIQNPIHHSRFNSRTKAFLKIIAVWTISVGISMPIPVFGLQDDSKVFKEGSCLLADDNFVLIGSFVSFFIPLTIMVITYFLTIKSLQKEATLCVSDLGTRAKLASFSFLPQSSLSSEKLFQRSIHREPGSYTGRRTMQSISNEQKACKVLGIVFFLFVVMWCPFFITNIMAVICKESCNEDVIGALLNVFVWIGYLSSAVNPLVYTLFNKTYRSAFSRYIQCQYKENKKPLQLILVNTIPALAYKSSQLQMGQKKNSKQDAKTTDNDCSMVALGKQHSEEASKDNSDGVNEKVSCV

| IC50 | Compound |
| --- | --- |
| 1.3 nM | N[C@@H](Cc1ccc(OCCCN2CCC(=C3c4ccc(Cl)cc4CCc4cccnc43)CC2)cc1)C(=O)O [Example 22, (S)-2-amino-3-(4-(3-(4-(8-chloro-5,6-dihydro-11H-benzo[5,6]cyclohepta[1,2-b]pyridin-11-ylidene)piperidin-1-yl)propoxy)phenyl)propionic acid trihydrochloride] |
| 0.15 nM | O=C1C2C(C(=O)N1CCCCN1CCC(=C3c4ccc(Cl)cc4CCc4cccnc43)CC1)[C@H]1CC[C@@H]2C1 (stereo partly drawn) [Example 30, (4R,7S)-2-(4-(4-(8-chloro-5,6-dihydro-11H-benzo[5,6]cyclohepta[1,2-b]pyridin-11-ylidene)piperidin-1-yl)butyl)hexahydro-1H-4,7-methanoisoindole-1,3(2H)-dione] |
| 30 nM | Cc1nc2sccn2c1C(O)CN1CCC(=C2c3ccc(Cl)cc3CCc3cccnc32)CC1 (stereo not shown) [Example 15, 2-(4-(8-chloro-5,6-dihydro-11H-benzo[5,6]cyclohepta[1,2-b]pyridin-11-ylidene)piperidin-1-yl)-1-(6-methylimidazo[2,1-b]thiazol-5-yl)ethan-1-ol] |
| 8.1 nM | O=C(CN1CCC(=C2c3ccc(Cl)cc3CCc3cccnc32)CC1)c1ccc(Br)cc1 [Example 24, 1-(4-bromophenyl)-2-(4-(8-chloro-5,6-dihydro-11H-benzo[5,6]cyclohepta[1,2-b]pyridin-11-ylidene)piperidin-1-yl)ethan-1-one] |
| 1.19 nM | OC(CN1CCC(=C2c3ccc(Cl)cc3CCc3cccnc32)CC1)c1ccc(Br)cc1 (stereo not shown) [Example 27, 1-(4-bromophenyl)-2-(4-(8-chloro-5,6-dihydro-11H-benzo[5,6]cyclohepta [1,2-b]pyridin-11-ylidene)piperidin-1-yl)ethan-1-ol] |
| 30.8 nM | COc1cccc(CCc2ccccc2OCC(O)CN2CCC(=C3c4ccc(Cl)cc4CCc4cccnc43)CC2)c1 (stereo not shown) [Example 60, 1-(4-(8-chloro-5,6-dihydro-11H-benzo[5,6]cyclohepta[1,2-b]pyridin-11-ylidene)piperidin-1-yl)-3-(2-(3-methoxyphenethyl)phenoxy)propan-2-ol] |
| 47 nM | O=c1[nH]c2ccccc2c(=O)n1CCN1CCC(=C2c3ccc(Cl)cc3CCc3cccnc32)CC1 [Example 12, 3-(2-(4-(8-chloro-5,6-dihydro-11H-benzo[5,6]cyclohepta[1,2-b]pyridin-11-ylidene)piperidin-1-yl)ethyl)quinazoline-2,4(1H,3H)-dione] |
| 0.19 nM | O=C1C2CCCCC2C(=O)N1CCCCN1CCC(=C2c3ccc(Cl)cc3CCc3cccnc32)CC1 (stereo not shown) [Example 19, 2-(4-(4-(8-chloro-5,6-dihydro-11H-benzo[5,6]cyclohepta[1,2-b]pyridin-11-ylidene)piperidin-1-yl)butyl)hexahydro-1H-isoindole-1,3(2H)-dione] |
| 2.1 nM | N[C@@H](Cc1ccc(OCCCN2CCC(=C3c4ccc(Cl)cc4CCc4cccnc43)CC2)c(Cl)c1)C(=O)O [Example 21, (S)-2-amino-3-(3-chloro-4-(3-(4-(8-chloro-5,6-dihydro-11H-benzo[5,6]cyclohepta[1,2-b]pyridin-11-ylidene)piperidin-1-yl)propoxy)phenyl)propionic acid trihydrochloride] |

| Compound | IC50 |
| --- | --- |
| CN1CCC(=C2c3ccc(Cl)cc3CCc3cccnc32)CC1 [Example 13, 8-chloro-11-(1-methylpiperidin-4-ylidene)-6,11-dihydro-5H-benzo[5,6]cyclohepta[1,2-b]pyridine] | 119 nM |
| O=C1CCc2ccc(OCCCCN3CCC(=C4c5ccc(Cl)cc5CCc5cccnc54)CC3)cc2N1 [Example 18, 7-(4-(4-(8-chloro-5,6-dihydro-11H-benzo[5,6]cyclohepta[1,2-b]pyridin-11-ylidene)piperidin-1-yl)butoxy)-3,4-dihydroquinolin-2(1H)-one] | 1.3 nM |
| N[C@@H](Cc1ccc(OCCCCN2CCC(=C3c4ccc(Cl)cc4CCc4cccnc43)CC2)c(Cl)c1)C(=O)O [Example 20, (S)-2-amino-3-(3-chloro-4-(4-(4-(8-chloro-5,6-dihydro-11H-benzo[5,6]cyclohepta[1,2-b]pyridin-11-ylidene)piperidin-1-yl)butoxy)phenyl)propionic acid trihydrochloride] | 2.08 nM |
| N[C@@H](Cc1ccc(OCCCCN2CCC(=C3c4ccc(Cl)cc4CCc4cccnc43)CC2)cc1)C(=O)O [Example 14, (S)-2-amino-3-(4-(4-(4-(8-chloro-5,6-dihydro-11H-benzo[5,6]cyclohepta[1,2-b]pyridin-11-ylidene)piperidin-1-yl)butoxy)phenyl)propionic acid trihydrochloride] | 188 nM |
